Entries after “also recorded” stand apart in the source; their conditions may differ. Like-named read-outs stand apart in the source and are kept apart here.
What was measured:
[1] = system: normal human dermal fibroblasts (NHDFs) stimulated with TGF-β1; test: Cell cytotoxicity in TGF-β1 induced normal human dermal fibroblasts; type: cell-based; details: for Cell Cytotoxicity: 48 hours, 50 ng/mL TGF-β1; for Cytotoxicity, result in words: compared with vehicle control and between compounds
Procedure: The effect of sitaxentan on cell viability, cell cytotoxicity, and apoptosis was measured in an assay using normal human dermal fibroblasts induced with TGF-β1 into a profibrotic phenotype. For these assays cells were grown for 48 hours in the presence of vehicle control, sitaxentan, and bosentan. The appropriate assay reagents and measuring techniques were used as indicated herein.
normal human dermal fibroblast cells (LLCT FC0024 lot 03869_ fibroblast) were seeded to confluence in 96 well plates in 10% fetal bovine serum (FBS) Dulbecco's modified eagle medium (DMEM).
The cells were washed to remove the FBS, and serum free media was added overnight (O/N).
The cells were then stimulated with 50 ng/mL TGF-β1 and treated.
For the cell cytotoxicity assay:
20 μl of the Cytotoxicity Reagent (Promega, Cat #G6320) containing both GF-AFC Substrate and bis-AAF-R110 Substrate, for measuring dead cells (cytotoxicity), was added and briefly mixed.
The plates for the different assays were then incubated for 30 minutes at 37° C.
Fluorescence was measured at: 400Ex/505Em (Viability) and 485Ex/520Em (Cytotoxicity)
Data were analyzed using GraphPad Prism 7.
Six to nine replicates were run for each sample.

[2] = system: normal human dermal fibroblasts (NHDFs) stimulated with TGF-β1; test: Cell viability in TGF-β1 induced normal human dermal fibroblasts; type: cell-based; details: for Cell Viability: 48 hours, 50 ng/mL TGF-β1
Procedure: For these assays cells were grown for 48 hours in the presence of vehicle control, sitaxentan, and bosentan. The appropriate assay reagents and measuring techniques were used as indicated herein. Normal human dermal fibroblast cells (LLCT FC0024 lot 03869_ fibroblast) were seeded to confluence in 96 well plates in 10% fetal bovine serum (FBS) Dulbecco's modified eagle medium (DMEM). The cells were washed to remove the FBS, and serum free media was added overnight (O/N). The cells were then stimulated with 50 ng/mL TGF-β1 and treated. For the cell viability assay: 20 μl of the Viability Reagent (Promega, Cat #G6320) containing both GF-AFC Substrate and bis-AAF-R110 Substrate, for measuring live cell viability, was added and briefly mixed. The plates for the different assays were then incubated for 30 minutes at 37° C. […] Data were analyzed using GraphPad Prism 7. Six to nine replicates were run for each sample.

[3] = system: primary normal human adult melanocytes; test: Melanin content in melanocytes; type: cell-based; details: for Melanin Content (absorbance at 400 nm): 24 hours
Procedure: (§1) The effect of sitaxentan on human melanocytes was measured. For these assays cells were grown for 24 hours in the presence of vehicle control, sitaxentan, and bosentan. The appropriate assay reagents and measuring techniques were used as indicated herein. Melanocytes, from either Caucasian or African American donors, were grown to confluence in 6-well tissue culture plates using LLCT DermaLife Ma complete medium and treated with compounds for 24 hours. Treated cells were removed from the plate with 0.25% trypsin for 10 minutes and then centrifuged at 0.4 g for 5 minutes. The resulting cell pellet was resuspended in 50 μL of 1M NaOH/10% DMSO solution. The resultant suspension was vortexed for 30 seconds. The suspension was then baked in a drying oven at 80° C. for 1 hour. The suspension was vortexed again for 30 seconds and then transferred to a black half-area 96-well plate and read in a UV/VIS spectrophotometer at 400 nm. Data were analyzed using GraphPad Prism 7.

[4] = system: primary normal human adult melanocytes; test: Melanin content in melanocytes; type: cell-based; details: for Melanin Content (absorbance at 400 nm): 24 hours; remark: listed apart in the source
Procedure: as §1

[5] = system: normal human dermal fibroblasts (NHDFs) stimulated with TGF-β1; test: Apoptosis (Caspase-Glo 3/7) in TGF-β1 induced normal human dermal fibroblasts; type: cell-based; details: for Apoptosis: 48 hours, 50 ng/mL TGF-β1; for Apoptosis, result in words: after treatment, compared with vehicle control and between compounds
Procedure: For these assays cells were grown for 48 hours in the presence of vehicle control, sitaxentan, and bosentan. The appropriate assay reagents and measuring techniques were used as indicated herein. Normal human dermal fibroblast cells (LLCT FC0024 lot 03869_ fibroblast) were seeded to confluence in 96 well plates in 10% fetal bovine serum (FBS) Dulbecco's modified eagle medium (DMEM). The cells were washed to remove the FBS, and serum free media was added overnight (O/N). The cells were then stimulated with 50 ng/mL TGF-β1 and treated. For the apoptosis assay: 100 μl of Caspase-Glo® 3/7 Reagent (Promega, Cat #G6320), for the apoptosis assay, was added and briefly mixed. The plate was incubated for 30 minutes at room temperature prior to measurement of luminescence Data were analyzed using GraphPad Prism 7. Six to nine replicates were run for each sample.

[6] = in vivo; cited from earlier work
[7] = molecular target: T1, endothelin-A (ET-A) receptor (Homo sapiens, UniProt P25101); details: cited from earlier work
T1 sequence (P25101 21-427): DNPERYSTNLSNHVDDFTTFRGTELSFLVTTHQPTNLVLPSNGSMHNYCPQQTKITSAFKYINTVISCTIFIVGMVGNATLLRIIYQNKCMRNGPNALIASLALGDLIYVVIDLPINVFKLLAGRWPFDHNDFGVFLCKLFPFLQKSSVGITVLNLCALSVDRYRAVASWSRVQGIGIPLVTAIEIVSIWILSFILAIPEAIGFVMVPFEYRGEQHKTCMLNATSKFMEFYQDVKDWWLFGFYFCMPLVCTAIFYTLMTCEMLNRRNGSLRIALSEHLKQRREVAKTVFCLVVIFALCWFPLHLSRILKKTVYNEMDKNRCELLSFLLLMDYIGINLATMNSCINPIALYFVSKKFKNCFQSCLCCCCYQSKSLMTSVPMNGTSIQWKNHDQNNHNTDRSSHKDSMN

[8] = cited from earlier work

COc1ccccc1Oc1c(NS(=O)(=O)c2ccc(C(C)(C)C)cc2)nc(-c2ncccn2)nc1OCCO [bosentan]
Cell Cytotoxicity ([1]; 1 μM): 4256.9 RFUs
Cell Cytotoxicity ([1]; 3 μM): 3954.2 RFUs
Cell Cytotoxicity ([1]; 10 μM): 3764.0 RFUs
Cell Cytotoxicity ([1]; 30 μM): 4607.5 RFUs
Cell Cytotoxicity ([1]; 100 μM): 3929.0 RFUs
Cytotoxicity, result in words [1]: neither bosentan nor sitaxentan was significantly more cytotoxic than the vehicle control; also recorded: significantly more cytotoxic than sitaxentan
Cell Viability ([2]; 1 μM): 5406.8 RFUs
Cell Viability ([2]; 3 μM): 5548.5 RFUs
Cell Viability ([2]; 10 μM): 5521.2 RFUs
Cell Viability ([2]; 30 μM): 5537.0 RFUs
Cell Viability ([2]; 100 μM): 5584.3 RFUs
Effect on melanin content, result in words [3]: no effect on melanin content
Melanin Content (absorbance at 400 nm) ([3]; 30 μM): 0.511
Melanin Content (absorbance at 400 nm) ([3]; 100 μM): 0.497
Effect on melanin content, result in words [4]: no effect on melanin content
Melanin Content (absorbance at 400 nm) ([4]; 30 μM): 0.633
Melanin Content (absorbance at 400 nm) ([4]; 100 μM): 0.703
Apoptosis ([5]; 1 μM): 39366.8 RLUs
Apoptosis ([5]; 3 μM): 38639.8 RLUs
Apoptosis ([5]; 10 μM): 38586.7 RLUs
Apoptosis ([5]; 30 μM): 42825.2 RLUs
Apoptosis ([5]; 100 μM): 43330.7 RLUs
Apoptosis, result in words [5]: elevated

Cc1cc2c(cc1CC(=O)c1sccc1S(=O)(=O)Nc1onc(C)c1Cl)OCO2 [sitaxentan, N-(4-Chloro-3-methyl-5-isoxazolyl)-2-[(2-methyl-4,5-methylenedioxyphenyl)-acetyl]thiophene-3-sulfonamide]
Cell Cytotoxicity ([1]; 1 μM): 4643.9 RFUs
Cell Cytotoxicity ([1]; 3 μM): 5058.3 RFUs
Cell Cytotoxicity ([1]; 10 μM): 4741.7 RFUs
Cell Cytotoxicity ([1]; 30 μM): 3837.5 RFUs
Cell Cytotoxicity ([1]; 100 μM): 2911.3 RFUs
Cytotoxicity, result in words [1]: neither bosentan nor sitaxentan was significantly more cytotoxic than the vehicle control
Cytotoxicity, result in words ([1]; listed as sitaxsentan): significantly less cytotoxic to human skin cells than bosentan
Metabolism [6]: hepatic (CYP2C9- and CYP3A4-mediated)
Cell Viability ([2]; 1 μM): 5678.3 RFUs
Cell Viability ([2]; 3 μM): 5639.0 RFUs
Cell Viability ([2]; 10 μM): 5600.5 RFUs
Cell Viability ([2]; 30 μM): 5250.8 RFUs
Cell Viability ([2]; 100 μM): 5171.0 RFUs
Toxicity (cell viability), result in words ([2]; concentrations up to 100 μM): no significant toxicity was observed
Selectivity for ET-A compared to ET-B (factor) [7]: 6000
Effect on melanin content, result in words [3]: superior to bosentan in reducing the melanin content; also recorded: significantly more effective than a vehicle control at reducing melanin content; also recorded: significantly decreased melanin content
Melanin Content (absorbance at 400 nm) ([3]; 30 μM): 0.471
Melanin Content (absorbance at 400 nm) ([3]; 100 μM): 0.46
Effect on melanin content, result in words [4]: superior to bosentan in reducing the melanin content; also recorded: significantly more effective than a vehicle control at reducing melanin content; also recorded: significantly decreased melanin content
Melanin Content (absorbance at 400 nm) ([4]; 30 μM): 0.579
Melanin Content (absorbance at 400 nm) ([4]; 100 μM): 0.544
Protein binding [8]: > 99%
Apoptosis ([5]; 1 μM): 37593.4 RLUs
Apoptosis ([5]; 3 μM): 39162.8 RLUs
Apoptosis ([5]; 10 μM): 39512.0 RLUs
Apoptosis ([5]; 30 μM): 46053.5 RLUs
Apoptosis ([5]; 100 μM): 51050.2 RLUs
Apoptosis, result in words [5]: elevated; also recorded: significantly more potent effect than bosentan

— patent US20210038569A1, “COMPOSITIONS AND METHODS FOR TREATING PIGMENTATION DISORDERS” (Timber Pharmaceuticals, Inc., priority 2018, published 2021)
